Test system: BBB model (human cerebrovascular endothelial cells, pericytes, astrocytes)
Assay: Barrier Function Evaluation Experiment 2: passage of the fluorescent dye through the BBB model in the fluidic device
Type: in vitro ADME
Conditions: 200 μM Lucifer Yellow in first flow path; after 5 minutes (300 seconds) flow; measured in the neuron cell culture module in the second accommodation section, behind the BBB model; FIG. 25(b)/FIG. 26
Method: Specifically, a cubic polycarbonate three-dimensional frame having a side length of 5 mm was prepared, and a 1.5% agarose gel was poured into an opening of the three-dimensional frame and gelled to form a film-shaped window from the resulting hydrogel. The window was formed on each of five faces of the three-dimensional frame as described above. Thereafter, a clump of neurons differentiated from human brain-derived neural stem cells and Matrigel (registered trademark) being an un-gelled culture gel were injected into a cubic space within the three-dimensional frame, and the culture gel was gelled. Then, a hydrogel window was formed on a remaining face of the three-dimensional frame. Through the above, the cell culture module including neurons was produced. […]
An experiment was conducted for evaluation of the barrier function of the BBB model. […] After the fluorescent dye solution and the medium had flowed for 5 minutes (300 seconds), a fluorescence image and a phase-contrast image of the inside of the cell culture module were captured through the fluidic device.
FIGS. 24(a) and 24(b) each show a fluorescence image (left) of the inside of the cell culture module including neurons used in the control experiment, and an image (right) obtained by superimposing the fluorescence image and a phase-contrast image on one another. […]

For Lucifer Yellow [fluorescent dye], the “relative luminance value on dashed line x-x' (corresponds to Lucifer Yellow concentration)” value was “approximately 0.1”.

Reference: patent US12655380B2, “Fluidic device” (UNIVERSITY PUBLIC CORPORATION OSAKA, priority 2019, dated 2026)
